row,SMILES,melting point
1,"Br.CN(C(=O)/C=C/c1cc(F)cc(F)c1)c1ccc(Oc2ccc3c(c2)cc(C(=O)N2CCN(Cc4ccc5c(c4)OCO5)CC2)n3C)nc1 [Example 12, (E)-N-{6-[2-(4-Benzo[1,3]dioxol-5-ylmethylpiperazine-1-carbonyl)-1-methyl-1H-indol-5-yloxy]pyridin-3-yl}-3-(3,5-difluorophenyl)-N-methylacrylamide hydrobromide]",176 to 178 °C
2,Cc1cc(C(F)(F)F)ccc1C(=O)Nc1ccc(Oc2ccc3cc(C(=O)N4CCN(Cc5ccc(OC(C)C)cc5)CC4)n(C)c3c2)nc1.Cl,197.7 to 199.3 °C
3,"Cc1cc(CN2CCN(C(=O)c3cc4cc(Oc5ccc(N(C)C(=O)c6ccc(C(F)(F)F)cc6)cn5)ccc4n3C)CC2)no1.O=C(O)/C=C\C(=O)O [Example 568, N-Methyl-N-(6-{1-methyl-2-[4-(5-methylisoxazol-3-ylmethyl)-piperazine-1-carbonyl]-1H-indol-5-yloxy}pyridin-3-yl)-4-tri-fluoromethylbenzamide maleate]",112 to 115 °C
4,"CCCCCCCCOc1ccc(CN2CCN(C(=O)c3cc4cc(Oc5ccc(N(C)C(=O)c6ccc(C(F)(F)F)cc6)cn5)ccc4n3C)CC2)cc1.O=C(O)/C=C\C(=O)O [Example 414, N-Methyl-N-(6-{1-methyl-2-[4-(4-octyloxybenzyl)piperazine-1-carbonyl]-1H-indol-5-yloxy}pyridin-3-yl)-4-trifluoromethyl-benzamide maleate]",125 to 126 °C
5,CN(C(=O)c1ccc(C(F)(F)F)cc1F)c1ccc(Oc2ccc3cc(C(=O)N4CCN(Cc5ccc(OCC(F)(F)F)cc5)CC4)n(C)c3c2)nc1.Cl,234.5 to 235.8 °C
6,"Br.Br.CCOc1ccc(CN2CCN(C(=O)c3cc4cc(Oc5ccc(NC(=O)c6ccc(Cl)c(Cl)c6)cn5)ccc4n3C)CC2)nc1 [Example 378, 3,4-Dichloro-N-(6-{2-[4-(5-ethoxypyridin-2-ylmethyl)piperazine-1-carbonyl]-1-methyl-1H-indol-5-yloxy}pyridin-3-yl)benzamide dihydrobromide]",218 to 220 °C
7,"Br.CCOc1ccc(CN2CCN(C(=O)c3cc4cc(Oc5cc(C)c(N(C)C(=O)c6ccc(Cl)c(Cl)c6)cn5)ccc4n3C)CC2)cc1 [Example 366, 3,4-Dichloro-N-(6-{2-[4-(4-ethoxybenzyl)piperazine-1-carbonyl]-1-methyl-1H-indol-5-yloxy}-4-methylpyridin-3-yl)-N-methylbenzamide hydrobromide]",201 to 204 °C
8,"Br.Cn1c(C(=O)N2CCN(Cc3ccc(OCC(F)(F)F)cc3)CC2)cc2ccc(Oc3ccc(NS(C)(=O)=O)cn3)cc21 [Example 76, N-[6-(1-Methyl-2-{4-[4-(2,2,2-trifluoroethoxy)benzyl]piperazine-1-carbonyl}-1H-indol-6-yloxy)pyridin-3-yl]methanesulfonamide hydrobromide]",237.8 to 240.1 °C
9,"Br.Cn1c(C(=O)N2CCN(Cc3ccc4c(c3)OCO4)CC2)cc2cc(Oc3ccc(NS(=O)(=O)c4ccc(C(F)(F)F)cc4)cn3)ccc21 [Example 65, N-{6-[2-(4-Benzo[1,3]dioxol-5-ylmethylpiperazine-1-carbonyl)-1-methyl-1H-indol-5-yloxy]pyridin-3-yl}-4-trifluoromethylbenzene-sulfonamide hydrobromide]",210 to 212 °C
10,"Br.CN(C(=O)c1ccc(OC(F)F)cc1)c1ccc(Oc2ccc3cc(C(=O)N4CCN(Cc5ccc(OCC(F)(F)F)cc5)CC4)n(C)c3c2)nc1 [Example 284, 4-Difluoromethoxy-N-methyl-N-[6-(1-methyl-2-{4-[4-(2,2,2-tri-fluoroethoxy)benzyl]piperazine-1-carbonyl}-1H-indol-6-yloxy)-pyridin-3-yl]benzamide hydrobromide]",203.8 to 205.6 °C
11,"Br.Cn1c(C(=O)N2CCN(Cc3ccc(OC(F)F)cc3)CC2)cc2ccc(Oc3ccc(NC(=O)c4ccc(Cl)c(Cl)c4)cn3)cc21 [Example 254, 3,4-Dichloro-N-(6-{2-[4-(4-difluoromethoxybenzyl)piperazine-1-carbonyl]-1-methyl-1H-indol-6-yloxy}pyridin-3-yl)benzamide hydrobromide]",249 to 253.7 °C
12,"Br.Cn1c(C(=O)N2CCN(Cc3ccc4c(c3)OC(F)(F)O4)CC2)cc2ccc(Oc3ccc(NC(=O)c4ccc(Cl)c(Cl)c4)cn3)cc21 [Example 467, 3,4-Dichloro-N-(6-{2-[4-(2,2-difluorobenzo[1,3]dioxol-5-yl-methyl)piperazine-1-carbonyl]-1-methyl-1H-indol-6-yloxy}pyridin-3-yl)benzamide hydrobromide]",253 to 254.8 °C
13,"Br.CN(C(=O)c1ccc(C(F)(F)F)cc1F)c1ccc(Oc2ccc3c(c2)cc(C(=O)N2CCN(Cc4ccc5c(c4)OCO5)CC2)n3C)nc1 [Example 319, N-{6-[2-(4-Benzo[1,3]dioxol-5-ylmethylpiperazine-1-carbonyl)-1-methyl-1H-indol-5-yloxy]pyridin-3-yl}-2-fluoro-N-methyl-4-tri-fluoromethylbenzamide hydrobromide]",187 to 190 °C
14,"Br.Br.CN(C(=O)c1ccc(Cl)c(Cl)c1)c1ccc(Oc2ccc3c(c2)cc(C(=O)N2CCN(Cc4ccncc4)CC2)n3C)nc1 [Example 554, 3,4-Dichloro-N-methyl-N-{6-[1-methyl-2-(4-pyridin-4-ylmethyl-piperazine-1-carbonyl)-1H-indol-5-yloxy]pyridin-3-yl}benzamide dihydrobromide]",204 to 208 °C (dec.)
15,"Br.CCCOc1ccc(CN2CCN(C(=O)c3cc4cc(Oc5ccc(NC(=O)c6ccc(C(F)(F)F)cc6)cn5)ccc4n3C)CC2)cc1 [Example 481, N-(6-{1-Methyl-2-[4-(4-propoxybenzyl)piperazine-1-carbonyl]-1H-indol-5-yloxy}pyridin-3-yl)-4-trifluoromethylbenzamide hydrobromide]",234.7 to 235.1 °C
16,"Br.CCCOc1ccc(CN2CCN(C(=O)c3cc4ccc(Oc5ccc(NS(=O)(=O)c6ccc(C(F)(F)F)cc6)cn5)cc4n3C)CC2)cc1 [Example 511, N-(6-{1-Methyl-2-[4-(4-propoxybenzyl)piperazine-1-carbonyl]-1H-indol-6-yloxy}pyridin-3-yl)-4-trifluoromethylbenzenesulfonamide hydrobromide]",223.7 to 224.8 °C
17,"Br.Cn1c(C(=O)N2CCN(Cc3ccc(F)cc3)CC2)cc2cc(Oc3ccc(NC(=O)c4ccc(C(F)(F)F)cc4)cn3)ccc21 [Example 551, N-(6-{2-[4-(4-Fluorobenzyl)piperazine-1-carbonyl]-1-methyl-1H-indol-5-yloxy}pyridin-3-yl)-4-trifluoromethylbenzamide hydrobromide]",254 to 257 °C
18,CN(c1ccc(Oc2ccc3cc(C(=O)N4CCN(Cc5ccc(OCC(F)(F)F)cc5)CC4)n(C)c3c2)nc1)S(=O)(=O)c1ccc(C(F)(F)F)cc1.Cl,256.9 to 257.7 °C
19,"Br.COCc1ccc(CN2CCN(C(=O)c3cc4cc(Oc5ccc(NC(=O)c6ccc(Cl)c(Cl)c6)cn5)ccc4n3C)CC2)cc1 [Example 375, 3,4-Dichloro-N-(6-{2-[4-(4-methoxymethylbenzyl)piperazine-1-carbonyl]-1-methyl-1H-indol-5-yloxy}pyridin-3-yl)benzamide hydrobromide]",244 to 249 °C (dec.)
20,"Br.CCOc1ccc(CN2CCN(C(=O)c3cc4cc(Oc5ccc(NC(=O)c6ccc(Cl)c(Cl)c6)cn5)ccc4n3C)CC2)cc1 [Example 360, 3,4-Dichloro-N-(6-{2-[4-(4-ethoxybenzyl)piperazine-1-carbonyl]-1-methyl-1H-indol-5-yloxy}pyridin-3-yl)benzamide hydrobromide]",235 to 238 °C (dec.)
21,"Br.Cc1cc(Oc2ccc3cc(C(=O)N4CCN(Cc5ccc(OCC(F)(F)F)cc5)CC4)n(C)c3c2)ncc1N(C)C(=O)c1ccc(C(F)(F)F)cc1 [Example 47, N-Methyl-N-[4-methyl-6-(1-methyl-2-{4-[4-(2,2,2-trifluoroethoxy)-benzyl]piperazine-1-carbonyl}-1H-indol-6-yloxy)pyridin-3-yl]-4-trifluoromethylbenzamide hydrobromide]",220 to 222.5 °C
22,"Br.CCCOc1ccc(CN2CCN(C(=O)c3cc4cc(Oc5ccc(NC(=O)c6ccc(Cl)c(Cl)c6)cn5)ccc4n3C)CC2)cc1 [Example 369, 3,4-Dichloro-N-(6-{1-methyl-2-[4-(4-propoxybenzyl)piperazine-1-carbonyl]-1H-indol-5-yloxy}pyridin-3-yl)benzamide hydrobromide]",249 to 252 °C (dec.)
23,CCCOc1ccc(CN2CCN(C(=O)c3cc4ccc(Oc5ccc(N(C)C(=O)c6ccc(C)cc6)cn5)cc4n3C)CC2)cc1.Cl,231.2 to 231.8 °C
24,"Cc1cc(Oc2ccc3cc(C(=O)N4CCN(Cc5ccc(OC(C)C)cc5)CC4)n(C)c3c2)ncc1N(C)S(=O)(=O)c1ccc(Cl)c(Cl)c1 [Example 313, 3,4-Dichloro-N-(6-{2-[4-(4-isopropoxybenzyl)piperazine-1-carbonyl]-1-methyl-1H-indol-6-yloxy}-4-methylpyridin-3-yl)-N-methylbenzenesulfonamide]",151 to 151.6 °C
25,"Br.CCOc1cccc(CN2CCN(C(=O)c3cc4ccc(Oc5ccc(N(C)C(=O)c6ccc(C(F)(F)F)cc6)cn5)cc4n3C)CC2)c1 [Example 418, N-(6-{2-[4-(3-Ethoxybenzyl)piperazine-1-carbonyl]-1-methyl-1H-indol-6-yloxy}pyridin-3-yl)-N-methyl-4-trifluoromethylbenzamide hydrobromide]",234 to 236 °C
26,"Br.COc1ccc(CN2CCN(C(=O)c3cc4cc(Oc5ccc(NC(=O)c6ccc(C(F)(F)F)cc6)cn5)ccc4n3C)CC2)cc1OC [Example 350, N-(6-{2-[4-(3,4-Dimethoxybenzyl)piperazine-1-carbonyl]-1-methyl-1H-indol-5-yloxy}pyridin-3-yl)-4-trifluoromethylbenzamide hydrobromide]",233 to 235 °C
27,"Br.CCN(C(=S)Nc1ccc(Cl)c(Cl)c1)c1ccc(Oc2ccc3c(c2)cc(C(=O)N2CCN(Cc4ccccc4)CC2)n3C)nc1 [Example 581, 1-{6-[2-(4-Benzylpiperazine-1-carbonyl)-1-methyl-1H-indol-5-yl-oxy]pyridin-3-yl}-3-(3,4-dichlorophenyl)-1-ethylthiourea hydrobromide]",163 to 168 °C
28,Cl.Cn1c(C(=O)N2CCN(Cc3ccc(OC(F)F)cc3)CC2)cc2ccc(Oc3ccc(NC(=O)c4ccc(C(F)(F)F)cc4F)cn3)cc21,265.3 to 265.8 °C
